Test results taken from patent US6951843B2, “Peptide derivatives and their pharmaceutically acceptable salts, thereof, processes for preparation of both and use thereof” (priority 2000, dated 2005).
Read-outs that look alike come from different tables or passages of the source.

How the values were obtained:
Arg-gingipain (RGP) = experiment: Inhibitory activity against Arg-gingipain (RGP), substrate Z-Phe-Arg-MCA, for comparison; format: biochemical, Porphyromonas gingivalis; conditions: compound concentration 10^−6 mol/l
Protocol: Enzyme inhibitory activity (%)=[1−(F/F0)]×100
The inhibitory activity against Arg-gingipain (hereinafter referred to as “RGP”) was measured for comparison in a manner similar to the above, by the process described in Journal Biological Chemistry, Vol. 269, 21371-21378 (1994) using Z-Phe-Arg-MCA as a substrate.

Lys-gingipain (KGP) = Lys-gingipain (KGP) (Porphyromonas gingivalis, UniProt B2RLK2)
Protocol: Measurement of Inhibitory Activity Against KGP
The inhibitory activity against Lys-gingipain (KGP) was measured by the method described in Journal Biochemistry, Vol. 123, 305-312 (1998), using Z-His-Glu-Lys-MCA as a substrate. Specifically, the measurement was carried out in the following manner: 100 μl of 50 mM L-cystein, 200 μl of a 0.1 M sodium phosphate buffer solution (pH 7.5), 20 μl of 12.3 nM KGP solution containing 0.05% “Brij35” (a tradename of Aldrich, polyoxyethylene(23) lauryl ether), 80 μl of distilled water and 100 μl of a dimethyl sulfoxide solution of a compound according to the invention were mixed together, and preincubated at 37° C. for 5 minutes. Thereafter, 500 μl of a 0.1% dimethyl sulfoxide solution containing 20 μM Z-His-Glu-Lys-MCA was added, followed by incubation at 40° C. for 10 minutes. Then, an acetic acid buffer solution (pH 5.0) containing 10 mM iodoacetamide was added to stop the enzyme reaction, and the fluorescence intensity (F) at 460 nm excited at 380 nm was measured. […] The enzyme inhibitory activity (%) was calculated by the following equation. Enzyme inhibitory activity (%)=[1−(F/F0)]×100

[1] = compound concentration 10^−6 mol/l
[2] = compound concentration 10^−9 mol/l

melting point [°C] | Structure (SMILES) | Enzyme inhibitory activity (%) RGP (Arg-gingipain (RGP)) [%] | Enzyme inhibitory activity (%) KGP (Lys-gingipain (KGP); [1]) [%] | Enzyme inhibitory activity (%) KGP (Lys-gingipain (KGP); [2]) [%]
122 to 124 | CN(C)C(=O)[C@H](CC(N)=O)NC(=O)C(=O)[C@H](CCCCNC(=O)OC(C)(C)C)NC(=O)[C@H](CCC(=O)OC(C)(C)C)NC(=O)OCc1ccccc1 | – | – | –
102 to 104 | CN(C)C(=O)[C@H](Cc1ccccc1)NC(=O)C(=O)[C@H](CCCCNC(=O)OC(C)(C)C)NC(=O)[C@H](CCC(=O)OC(C)(C)C)NC(=O)OCc1ccccc1 | – | – | –
82 to 85 | CC(C)(C)OC(=O)CC[C@H](NC(=O)OCc1ccccc1)C(=O)N[C@@H](CCCCNC(=O)OC(C)(C)C)C(O)C(=O)NCCc1ccccc1 (stereo partly drawn) | – | – | –
101 to 103 | COC(=O)C(O)[C@H](CCCCNC(=O)OC(C)(C)C)NC(=O)[C@H](CCC(=O)OC(C)(C)C)NC(=O)OCc1ccccc1 (stereo partly drawn) | – | – | –
157 to 159 | CC(C)(C)OC(=O)NCCCC[C@H](NC(=O)[C@H](CCC(=O)NCCNC(=O)OC(C)(C)C)NC(=O)OCc1ccccc1)C(=O)C(=O)NCc1ccccc1 | – | – | –
189 to 192 | CNC(=O)CC[C@H](NC(=O)OCc1ccccc1)C(=O)N[C@@H](CCCCNC(=O)OC(C)(C)C)C(=O)C(=O)NCc1ccccc1 | – | – | –
131 to 133 | CCCNC(=O)C(=O)[C@H](CCCCNC(=O)OC(C)(C)C)NC(=O)[C@H](CCC(=O)OC(C)(C)C)NC(=O)OCc1ccccc1 | – | – | –
130 to 132 | CC(C)(C)OC(=O)CC[C@H](NC(=O)OCc1ccccc1)C(=O)N[C@@H](CCCCNC(=O)OC(C)(C)C)C(=O)C(=O)NCc1ccccc1 | – | – | –
127 to 130 | CN(C)C(=O)[C@H](CCC(=O)OC(C)(C)C)NC(=O)C(=O)[C@H](CCCCNC(=O)OC(C)(C)C)NC(=O)[C@H](CCC(=O)OC(C)(C)C)NC(=O)OCc1ccccc1 | – | – | –
119 to 122 | CC(C)C[C@H](NC(=O)C(=O)[C@H](CCCCNC(=O)OC(C)(C)C)NC(=O)[C@H](CCC(=O)OC(C)(C)C)NC(=O)OCc1ccccc1)C(=O)N(C)C | – | – | –
148 to 150 | CC(C)(C)OC(=O)CC[C@H](NC(=O)OCc1ccccc1)C(=O)N[C@@H](CCCCNC(=O)OC(C)(C)C)C(=O)C(=O)NCCc1ccccc1 | – | – | –
88 to 91 | CN(C)C(=O)[C@H](CC(N)=O)NC(=O)C(O)[C@H](CCCCNC(=O)OC(C)(C)C)NC(=O)[C@H](CCC(=O)OC(C)(C)C)NC(=O)OCc1ccccc1 (stereo partly drawn) | – | – | –
146 to 147 | CC(C)(C)OC(=O)CC[C@H](NC(=O)OCc1ccccc1)C(=O)N[C@@H](CCCCNC(=O)OC(C)(C)C)C(O)C(=O)Nc1ccccc1 (single isomer, unassigned) | – | – | –
152 to 155 | CN(C)C(=O)[C@H](CCCCNC(=O)OC(C)(C)C)NC(=O)C(=O)[C@H](CCCCNC(=O)OC(C)(C)C)NC(=O)[C@H](CCC(=O)OC(C)(C)C)NC(=O)OCc1ccccc1 | – | – | –
48 to 50 | CC(C)(C)OC(=O)CC[C@H](NC(=O)OCc1ccccc1)C(=O)N[C@@H](CCCCNC(=O)OC(C)(C)C)C(O)C(=O)O (stereo partly drawn) | – | – | –
193 to 195 | CC(C)(C)OC(=O)NCCCC[C@H](NC(=O)[C@H](CCC(N)=O)NC(=O)OCc1ccccc1)C(=O)C(=O)NCc1ccccc1 | – | – | –
73 to 75 | CCCNC(=O)C(O)[C@H](CCCCNC(=O)OC(C)(C)C)NC(=O)[C@H](CCC(=O)OC(C)(C)C)NC(=O)OCc1ccccc1 (stereo partly drawn) | – | – | –

The remaining lines, values behind:

Structure (SMILES) | melting point [°C] | Enzyme inhibitory activity (%) RGP (Arg-gingipain (RGP)) [%] | Enzyme inhibitory activity (%) KGP (Lys-gingipain (KGP); [1]) [%] | Enzyme inhibitory activity (%) KGP (Lys-gingipain (KGP); [2]) [%]
Cl.NCCCC[C@H](NC(=O)[C@H](CCC(=O)O)NC(=O)OCc1ccccc1)C(=O)C(=O)Nc1ccccc1 [Example 40] | – | 0.0 | 99.6 | 71.3
CC(C)(C)OC(=O)NCCCC[C@H](NC(=O)[C@H](CCC(N)=O)NC(=O)OCc1ccccc1)C(O)C(=O)NCc1ccccc1 (stereo partly drawn) | 138 to 141 | – | – | –
CN(C)C(=O)[C@H](Cc1ccccc1)NC(=O)C(O)[C@H](CCCCNC(=O)OC(C)(C)C)NC(=O)[C@H](CCC(=O)OC(C)(C)C)NC(=O)OCc1ccccc1 (single isomer, unassigned) | 132 to 134 | – | – | –
CN(C)C(=O)[C@H](CC(N)=O)NC(=O)C(=O)[C@H](CCCCN)NC(=O)[C@H](CCC(=O)O)NC(=O)OCc1ccccc1.Cl [Example 37] | – | 8.5 | 99.9 | 59.6
CN(C)C(=O)CC[C@H](NC(=O)OCc1ccccc1)C(=O)N[C@@H](CCCCN)C(=O)C(=O)NCc1ccccc1.Cl [Example 45] | – | 0.0 | 100.0 | 93.7
CN(C)C(=O)[C@H](CCC(=O)O)NC(=O)C(=O)[C@H](CCCCN)NC(=O)[C@H](CCC(=O)O)NC(=O)OCc1ccccc1.Cl [Example 36] | – | 0.0 | 98.6 | 38.4
CC(C)(C)OC(=O)NCCCC[C@H](NC(=O)[C@H](CCC(=O)NCCNC(=O)OC(C)(C)C)NC(=O)OCc1ccccc1)C(O)C(=O)NCc1ccccc1 (stereo partly drawn) | 170 to 172 | – | – | –
CN(NC(=O)CC[C@H](NC(=O)OCc1ccccc1)C(=O)N[C@@H](CCCCN)C(=O)C(=O)NCc1ccccc1)c1ccccc1.Cl.Cl [Example 49] | – | 0.0 | 100.0 | 99.0
CN(C)C(=O)[C@H](Cc1ccccc1)NC(=O)C(=O)[C@H](CCCCN)NC(=O)[C@H](CCC(=O)O)NC(=O)OCc1ccccc1.Cl [Example 34] | – | 5.7 | 99.7 | 40.6
CN(NC(=O)CC[C@H](NC(=O)OCc1ccccc1)C(=O)N[C@@H](CCCCNC(=O)OC(C)(C)C)C(=O)C(=O)NCc1ccccc1)c1ccccc1 | 147 to 150 | – | – | –
Cl.NCCCC[C@H](NC(=O)[C@H](CCC(=O)O)NC(=O)OCc1ccccc1)C(=O)C(=O)NCc1ccccc1 [Example 41] | – | 4.0 | 99.7 | 81.8
Cl.NCCCC[C@H](NC(=O)[C@H](CCC(N)=O)NC(=O)OCc1ccccc1)C(=O)C(=O)NCc1ccccc1 [Example 43] | – | 9.0 | 100.0 | 93.8
CN(C)NC(=O)CC[C@H](NC(=O)OCc1ccccc1)C(=O)N[C@@H](CCCCN)C(=O)C(=O)NCc1ccccc1.Cl.Cl [Example 48] | – | 4.1 | 100.0 | 98.2
CN(C)NC(=O)CC[C@H](NC(=O)OCc1ccccc1)C(=O)N[C@@H](CCCCNC(=O)OC(C)(C)C)C(O)C(=O)NCc1ccccc1 (stereo partly drawn) | 123 to 125 | – | – | –
Cl.Cl.NCCCC[C@H](NC(=O)[C@H](CCC(=O)NCCN)NC(=O)OCc1ccccc1)C(=O)C(=O)NCc1ccccc1 [Example 46] | – | 0.5 | 99.9 | 99.9
Cl.Cl.NCCCC[C@H](NC(=O)[C@H](CCC(=O)N1CCNCC1)NC(=O)OCc1ccccc1)C(=O)C(=O)NCc1ccccc1 [Example 47] | – | 6.4 | 100.0 | 98.5
Cl.NCCCC[C@H](NC(=O)[C@H](CCC(=O)O)NC(=O)OCc1ccccc1)C(=O)C(=O)NCCc1ccccc1 [Example 42] | – | 7.7 | 98.0 | 67.0
CC(C)C[C@H](NC(=O)C(=O)[C@H](CCCCN)NC(=O)[C@H](CCC(=O)O)NC(=O)OCc1ccccc1)C(=O)N(C)C.Cl [Example 35] | – | 3.7 | 99.9 | 50.6
CCCNC(=O)C(=O)[C@H](CCCCN)NC(=O)[C@H](CCC(=O)O)NC(=O)OCc1ccccc1.Cl [Example 39] | – | 0.0 | 99.6 | 71.9
CNC(=O)CC[C@H](NC(=O)OCc1ccccc1)C(=O)N[C@@H](CCCCN)C(=O)C(=O)NCc1ccccc1.Cl [Example 44] | – | 1.9 | 100.0 | 97.3
CNC(=O)CC[C@H](NC(=O)OCc1ccccc1)C(=O)N[C@@H](CCCCNC(=O)OC(C)(C)C)C(O)C(=O)NCc1ccccc1 (stereo partly drawn) | 147 to 149 | – | – | –
CN(NC(=O)CC[C@H](NC(=O)OCc1ccccc1)C(=O)N[C@@H](CCCCNC(=O)OC(C)(C)C)C(O)C(=O)NCc1ccccc1)c1ccccc1 (stereo partly drawn) | 170 to 173 | – | – | –
